Experimental data as given in patent publication US20030207877A1, “Pyridoquinoxaline antivirals” (priority 2001, published 2003).
Several values for one entry are separate records, joined by “and”; a condition that tells them apart may be missing. Equal entries are not always repeated.

Key:
[1] = molecular target: T1, Alpha Polymerase (Homo sapiens, UniProt P09884); test: Alpha polymerase inhibition (selectivity); assay type: biochemical
T1 sequence (P09884 1-1462): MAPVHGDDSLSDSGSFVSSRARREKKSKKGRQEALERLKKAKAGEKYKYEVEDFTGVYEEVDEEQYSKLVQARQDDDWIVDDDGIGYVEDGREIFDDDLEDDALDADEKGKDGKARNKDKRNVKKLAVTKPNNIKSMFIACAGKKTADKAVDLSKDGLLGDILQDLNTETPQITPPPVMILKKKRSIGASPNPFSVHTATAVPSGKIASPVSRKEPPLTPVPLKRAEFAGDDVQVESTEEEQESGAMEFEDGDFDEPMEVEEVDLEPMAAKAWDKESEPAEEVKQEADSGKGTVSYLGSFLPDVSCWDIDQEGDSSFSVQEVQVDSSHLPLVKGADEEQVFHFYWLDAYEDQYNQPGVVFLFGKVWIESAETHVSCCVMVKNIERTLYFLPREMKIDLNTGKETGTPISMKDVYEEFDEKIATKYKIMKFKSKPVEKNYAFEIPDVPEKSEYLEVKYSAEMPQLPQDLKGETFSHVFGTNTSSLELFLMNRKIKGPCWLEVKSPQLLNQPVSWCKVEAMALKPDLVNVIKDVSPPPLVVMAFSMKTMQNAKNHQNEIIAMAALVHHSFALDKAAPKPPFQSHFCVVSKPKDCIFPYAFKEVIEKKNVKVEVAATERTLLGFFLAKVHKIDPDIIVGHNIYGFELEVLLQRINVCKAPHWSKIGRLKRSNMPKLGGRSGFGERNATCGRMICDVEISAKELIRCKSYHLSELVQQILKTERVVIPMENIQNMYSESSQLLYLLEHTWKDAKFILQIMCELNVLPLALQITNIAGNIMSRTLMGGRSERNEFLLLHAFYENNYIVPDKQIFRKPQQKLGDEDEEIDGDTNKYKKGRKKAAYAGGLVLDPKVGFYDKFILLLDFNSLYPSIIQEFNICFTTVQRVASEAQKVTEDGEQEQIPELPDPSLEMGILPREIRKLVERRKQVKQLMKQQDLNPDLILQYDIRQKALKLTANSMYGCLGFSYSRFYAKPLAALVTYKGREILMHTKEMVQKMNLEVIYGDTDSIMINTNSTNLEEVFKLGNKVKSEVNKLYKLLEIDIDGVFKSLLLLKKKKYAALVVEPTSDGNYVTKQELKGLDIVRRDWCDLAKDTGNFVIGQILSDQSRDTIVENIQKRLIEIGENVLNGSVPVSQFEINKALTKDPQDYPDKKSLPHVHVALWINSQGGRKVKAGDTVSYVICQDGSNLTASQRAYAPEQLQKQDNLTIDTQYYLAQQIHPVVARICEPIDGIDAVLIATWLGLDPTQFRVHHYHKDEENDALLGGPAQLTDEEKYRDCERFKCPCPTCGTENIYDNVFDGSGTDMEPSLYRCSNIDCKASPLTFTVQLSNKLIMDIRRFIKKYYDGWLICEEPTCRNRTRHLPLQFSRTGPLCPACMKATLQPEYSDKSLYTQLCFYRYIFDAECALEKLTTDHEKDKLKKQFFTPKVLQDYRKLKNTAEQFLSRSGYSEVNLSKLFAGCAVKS

[2] = molecular target: T2, HCMV polymerase (Human cytomegalovirus, UniProt P08546); test: HCMV polymerase assay (scintillation proximity assay), original and modified version; assay type: biochemical; details: SPA; several values per example = repeat determinations, assay version not given; read-out: CMV Polymerase IC50
T2 construct: made in house; host or cells: SF-9 insect cells infected with recombinant baculovirus
Description: The HCMV polymerase assay is performed using a scintillation proximity assay (SPA) as described in several references, such as N.D. Cook, et al., Pharmaceutical Manufacturing International, pages 49-53 (1992); K. Takeuchi, Laboratory Practice, September issue (1992); U.S. Pat. No. 4,568,649 (1986); which are incorporated by reference herein. Reactions are performed in 96-well plates. The assay is conducted in 100 μl volume with 5.4 mM HEPES (pH 7.5), 11.7 MM KCl, 4.5 mM MgCl2, 0.36 mg/ml BSA, and 90 nM ^3H-dTTP. Assays are run with and without CHAPS, (3-[(3-Cholamidopropyl)-dimethylammoniol-1-propane-sulfonate) at a final concentration of 2 mM. HCMV polymerase is diluted in enzyme dilution buffer containing 50% glycerol, 250 mM NaCl, 10 mM HEPES (pH 7.5), 100 μg/ml BSA, and 0.01% sodium azide. The HCMV polymerase, which is expressed in recombinant baculovirus-infected SF-9 cells and purified according to literature procedures, is added at 10% (or 10 μl) of the final reaction volume, i.e., 100 μl. Compounds are diluted in 50% DMSO and 10 μl are added to each well. Control wells contain an equivalent concentration of DMSO. Unless noted otherwise, reactions are initiated via the addition of 6 nM biotinylated poly(dA)-oligo(dT) template/primer to reaction mixtures containing the enzyme, substrate, and compounds of interest. Plates are incubated in a 25° C. or 37° C. H2O bath and terminated via the addition of 40 μl/reaction of 0.5 M EDTA (pH 8) per well. Reactions are terminated within the time-frame during which substrate incorporation is linear and varied depending upon the enzyme and conditions used, i.e., 30 min. for HCMV polymerase. Ten (10) μl of streptavidin-SPA beads (20 mg/ml in PBS/10% glycerol) are added following termination of the reaction. Plates are incubated 10 min. at 37° C., then equilibrated to room temperature, and counted on a Packard Topcount. Linear regressions are performed and IC50's are calculated using computer software.
A modified version of the above HCMV polymerase assay is performed as described above, but with the following changes: Compounds are diluted in 100% DMSO until final dilution into assay buffer. In the previous assay, compounds are diluted in 50% DMSO. 4.5 mM dithiotherotol (DTT) is added to the polymerase buffer.

T2 sequence (P08546 whole entry): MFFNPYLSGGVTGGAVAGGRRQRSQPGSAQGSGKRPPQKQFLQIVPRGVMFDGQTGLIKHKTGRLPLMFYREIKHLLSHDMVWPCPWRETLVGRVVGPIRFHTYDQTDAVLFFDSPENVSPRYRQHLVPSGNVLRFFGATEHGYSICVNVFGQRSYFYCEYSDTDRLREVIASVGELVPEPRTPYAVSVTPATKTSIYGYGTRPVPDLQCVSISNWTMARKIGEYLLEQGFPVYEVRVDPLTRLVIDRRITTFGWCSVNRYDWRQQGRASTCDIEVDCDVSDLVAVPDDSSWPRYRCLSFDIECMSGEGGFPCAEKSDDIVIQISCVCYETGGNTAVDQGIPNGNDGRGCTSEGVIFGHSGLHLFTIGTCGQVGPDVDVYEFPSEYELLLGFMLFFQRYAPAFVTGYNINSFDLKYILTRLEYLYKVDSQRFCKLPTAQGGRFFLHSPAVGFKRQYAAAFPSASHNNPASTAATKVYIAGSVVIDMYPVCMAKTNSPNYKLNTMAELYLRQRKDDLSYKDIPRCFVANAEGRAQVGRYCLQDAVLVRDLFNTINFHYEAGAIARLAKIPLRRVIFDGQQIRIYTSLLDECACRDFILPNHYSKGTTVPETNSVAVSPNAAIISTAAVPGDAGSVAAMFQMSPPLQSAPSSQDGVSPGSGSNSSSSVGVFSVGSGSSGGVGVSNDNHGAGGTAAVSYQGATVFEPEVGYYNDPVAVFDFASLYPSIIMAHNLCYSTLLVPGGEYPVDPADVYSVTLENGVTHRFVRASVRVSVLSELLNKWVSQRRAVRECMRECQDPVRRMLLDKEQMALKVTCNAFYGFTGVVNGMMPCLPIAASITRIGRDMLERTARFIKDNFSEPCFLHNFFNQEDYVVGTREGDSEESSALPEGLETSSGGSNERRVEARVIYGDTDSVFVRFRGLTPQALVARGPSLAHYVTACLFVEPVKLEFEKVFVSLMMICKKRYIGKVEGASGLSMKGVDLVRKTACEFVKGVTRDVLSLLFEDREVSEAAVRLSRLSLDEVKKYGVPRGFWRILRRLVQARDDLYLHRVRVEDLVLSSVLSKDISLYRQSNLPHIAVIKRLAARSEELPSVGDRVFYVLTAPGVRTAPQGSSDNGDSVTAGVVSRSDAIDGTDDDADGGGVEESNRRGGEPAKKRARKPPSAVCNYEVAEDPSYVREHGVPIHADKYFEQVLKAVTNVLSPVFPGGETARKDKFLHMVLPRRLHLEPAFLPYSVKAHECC

Row | Compound | melting point [°C] | IC50 [1] [µM] | IC50 [2]
1 | CN(Cc1cc2c3c(c1)c(=O)c(C(=O)NCc1ccc(Cl)cc1)cn3CC(=O)N2C)C[C@@H](O)c1ccco1 [Example 11, N-(4-chlorobenzyl)-9-{[[(2R)-2-(2-furyl)-2-hydroxyethyl](methyl)amino]methyl}-1-methyl-2,7-dioxo-2,3-dihydro-1H,7H-pyrido[1,2,3-de]quinoxaline-6-carboxamide] | 119 to 120 | > 20 | 110 nM and 46 nM
2 | CN(Cc1cc2c3c(c1)c(=O)c(C(=O)NCc1ccc(Cl)cc1)cn3CC(=O)N2C)CC(O)c1csc2ccccc12 (racemic) [Example 15, rac 9-{([2-(1-benzothien-3-yl)-2-hydroxyethyl](methyl)amino)methyl}-N-(4-chlorobenzyl)-1-methyl-2,7-dioxo-2,3-dihydro-1H,7H-pyrido[1,2,3-de]quinoxaline-6-carboxamide] | 147 to 149 | > 20 | 110 nM and 86 nM
3 | CN(Cc1cc2c3c(c1)c(=O)c(C(=O)NCc1ccc(F)cc1)cn3CC(=O)N2C)CC(O)c1cc2ccccc2o1 (racemic) [Example 33, rac 9-{[[2-(1-benzofuran-2-yl)-2-hydroxyethyl](methyl)amino]methyl}-N-(4-fluorobenzyl)-1-methyl-2,7-dioxo-2,3-dihydro-1H,7H-pyrido[1,2,3-de]quinoxaline-6-carboxamide] | 161 to 163 | 4.39 | 32 nM
4 | CN(Cc1cc2c3c(c1)c(=O)c(C(=O)NCc1ccc(Cl)cc1)cn3CC(=O)N2C)C[C@@H](O)c1ccccc1 [Example 12, N-(4-chlorobenzyl)-9-{[[(2S)-2-hydroxy-2-phenylethyl](methyl)amino]methyl}-1-methyl-2,7-dioxo-2,3-dihydro-1H,7H-pyrido[1,2,3-de]quinoxaline-6-carboxamide] | – | ≥ 20 | –
5 | CN(Cc1cc2c3c(c1)c(=O)c(C(=O)NCc1ccc(F)cc1)cn3CC(=O)N2C)C[C@H](O)c1cc2ccccc2o1 [Example 37, 9-{[[(2S)-2-(1-benzofuran-2-yl)-2-hydroxyethyl](methyl)amino]methyl}-N-(4-fluorobenzyl)-1-methyl-2,7-dioxo-2,3-dihydro-1H,7H-pyrido[1,2,3-de]quinoxaline-6-carboxamide] | 195 to 197 | – | 1190 nM
6 | CN(Cc1cc2c3c(c1)c(=O)c(C(=O)NCc1ccc(F)cc1)cn3CC(=O)N2C)C[C@@H](O)c1cnccn1 [Example 30, N-(4-fluorobenzyl)-9-{[[(2R)-2-hydroxy-2-pyrazin-2-ylethyl](methyl)amino]methyl}-1-methyl-2,7-dioxo-2,3-dihydro-1H,7H-pyrido[1,2,3-de]quinoxaline-6-carboxamide] | 108 to 110 | – | 1090 nM
7 | CN(Cc1cc2c3c(c1)c(=O)c(C(=O)NCc1ccc(Cl)cc1)cn3CC(=O)N2C)CC(O)c1cc2ccccc2o1 (racemic) [Example 3, rac 9-{([2-(1-benzofuran-2-yl)-2-hydroxyethyl](methyl)amino)methyl}-N-(4-chlorobenzyl)-1-methyl-2,7-dioxo-2,3-dihydro-1H,7H-pyrido[1,2,3-de]quinoxaline-6-carboxamide] | – | > 5 | 8.6 nM and 7.8 nM and 7.2 nM
8 | CN(Cc1cc2c3c(c1)c(=O)c(C(=O)NCc1ccc(Cl)cc1)cn3CC(=O)N2C)CC(O)c1ncccn1 (racemic) [Example 19, rac N-(4-chlorobenzyl)-9-{([2-hydroxy-2-pyrimidin-2-ylethyl](methyl)amino)methyl}-1-methyl-2,7-dioxo-2,3-dihydro-1H,7H-pyrido [1,2,3-de]quinoxaline-6-carboxamide] | 168 to 170 | – | 490 nM
9 | CN(Cc1cc2c3c(c1)c(=O)c(C(=O)NCc1ccc(Cl)cc1)cn3CC(=O)N2C)CC(O)c1ccoc1 (racemic) [Example 4, rac N-(4-chlorobenzyl)-9-{([2-(3-furyl)-2-hydroxyethyl](methyl)amino)methyl}-1-methyl-2,7-dioxo-2,3-dihydro-1H,7H-pyrido[1,2,3-de]quinoxaline-6-carboxamide] | 145 to 148 | – | 570 nM
10 | CN(Cc1cc2c3c(c1)c(=O)c(C(=O)NCc1ccc(Cl)cc1)cn3CC(=O)N2C)CC(O)c1ccc(C#N)s1 (racemic) [Example 20, rac N-(4-chlorobenzyl)-9-{([2-(5-cyanothein-2-yl)-2-hydroxyethyl](methyl)amino)methyl}-1-methyl-2,7-dioxo-2,3-dihydro-1H,7H-pyrido[1,2,3-de]quinoxaline-6-carboxamide] | 122 to 126 | – | 410 nM
11 | CN(Cc1cc2c3c(c1)c(=O)c(C(=O)NCc1ccc(F)cc1)cn3CC(=O)N2C)C[C@@H](O)c1cccs1 [Example 32, N-(4-fluorobenzyl)-9-{[[(2R)-2-hydroxy-2-thien-2-ylethyl](methyl)amino]methyl}-1-methyl-2,7-dioxo-2,3-dihydro-1H,7H-pyrido[1,2,3-de]quinoxaline-6-carboxamide] | 113 to 115 | – | 580 nM
12 | CN(Cc1cc2c3c(c1)c(=O)c(C(=O)NCc1ccc(Cl)cc1)cn3CC(=O)N2CCO)C[C@@H](O)c1ccco1 [Example 31, N-(4-chlorobenzyl)-9-{([(2R)-2-(2-furyl)-2-hydroxyethyl](methyl)amino)methyl}-1-(2-hydroxyethyl)-2,7-dioxo-2,3-dihydro-1H,7H-pyrido[1,2,3-de]quinoxaline-6-carboxamide] | 166 to 167 | – | 2890 nM
13 | CN(Cc1cc2c3c(c1)c(=O)c(C(=O)NCc1ccc(Cl)cc1)cn3CC(=O)N2C)C[C@@H](O)c1nccs1 [Example 22, N-(4-chlorobenzyl)-9-{[[(2R)-2-hydroxy-2-(1,3-thiazol-2-yl)ethyl](methyl)amino]methyl}-1-methyl-2,7-dioxo-2,3-dihydro-1H,7H-pyrido[1,2,3-de]quinoxaline-6-carboxamide] | 125 to 130 | – | 490 nM
